Values quoted from earlier work, collected in patent US20060122095A1, “Mucus formulation for mucosal surfaces and uses thereof” (priority 2002, published 2006).
“Also recorded” adds a separate entry of the source.

Tests used:
[1] = multiple routes of administration, different species of animals
[2] = tested on: HIV-1
[3] = tested on: HIV-1; conditions: previous evaluations of UC-781 formulations
[4] = tested on: different cell types in culture; conditions: even at extremely high concentrations
[5] = tested on: HIV-1; conditions: after complete washing away of unbound drug

CC(C)=CCOc1cc(NC(=S)c2ccoc2C)ccc1Cl [UC-781, N-[4-chloro-3-(3-methyl-2-butenyloxy)phenyl]]
bioavailability [1]: poor bioavailability
effectiveness against strains of HIV-1 that encode known NNRTI resistance mutations ([2]; compared with wild type isolates): equally effective
HIV-1 inhibition effect, inactivating concentration ([2]; primary wild type isolates of clades A through G, in vitro): nanomolar range; also recorded: nanomolar concentrations
activity in explant model [3]: remained active
solubility in water: limited solubility in water
toxic effect on cells in culture [4]: no toxic effect
resistance of pre-treated cells to infection (memory effect) [5]: remained resistant to infection for several days
